According to patent US20030138470A1, “Fragrant composition having mosquito-repelling effect” (TAKASAGO INTERNATIONAL CORPORATION, priority 2001, published 2003):

Test system: adults of Culex pipiens pallen
Test: Blood-sucking repelling test on forearms
Type: in vivo
Settings: 1% test sample solution on forearms, 15 minutes exposure, 30° C., humidity 70%
Protocol: […] of 1% test sample solutions were prepared by dissolving 1 g of each of the fragrant compositions of Examples 1, 2 and 3, Comparative Example 3 (Pelargonium citrosum extract), and Comparative Example 4 (DEET) into 90 g of ethanol and adding 9 g of water.
On the sample solutions of Examples 1, 2 and 3 and Comparative Examples 3 and 4, a blood-sucking repelling test toward adults of Culex pipiens pallen was carried out, whereby strength of mosquito-repellency and persistency were compared.
The test was carried out in a constant-temperature room kept at a temperature of 30° C. and a humidity of 70%.
After 10 ml of each test sample solution was applied onto right and left forearms, each arm was entered for 15 minutes into a bag-shape wire netting having a size of 20 cm×15 cm in which 50 each of male and female mosquitoes which were 5 to 7 days after emergence were placed, whereby the mosquitoes were allowed to suck blood. This operation was repeatedly carried out 1 hour, 2 hours, 3 hours, 4 hours, and 6 hours after the sample application, the number of sucked places within the sucking time was counted, and repellency was calculated according to the following equation.
Repellency=[(X−Y)/X]×100(%)
X: the number of sucked places in the case that no test sample solution was applied.
Y: the number of sucked places in the case that a test sample solution was applied.

CCN(CC)C(=O)c1cccc(C)c1 [Comparative Example 4, N,N-Diethyl-m-toluamide]
100%: Repellency After 1 hour (1 hour after application) | Repellency After 2 hours (2 hours after application) | Repellency After 3 hours (3 hours after application) | Repellency After 4 hours (4 hours after application) | Repellency After 6 hours (6 hours after application)
